Results published in patent publication US12139520B2 (priority 2020, dated 2024).
Bridge positions count the residues as written; N and C are the ends. Square brackets hold non-standard residues; d marks the D form. Peptide text beside a SMILES is read from it. Hyp = O=C(O)[C@@H]1C[C@@H](O)CN1; Cit = NC(=O)NCCC[C@H](N)C(=O)O

Tests used:
hAM1 receptor = hAM1 receptor (Homo sapiens, UniProt O60895+Q16602); assay: cAMP assay for in vitro receptor activation, hAM1-R; type: cell-based; conditions: cAMP assay, hAM1 receptor; read-out: hAM1R EC50
hAM1 receptor, sequence (Q16602 23-461): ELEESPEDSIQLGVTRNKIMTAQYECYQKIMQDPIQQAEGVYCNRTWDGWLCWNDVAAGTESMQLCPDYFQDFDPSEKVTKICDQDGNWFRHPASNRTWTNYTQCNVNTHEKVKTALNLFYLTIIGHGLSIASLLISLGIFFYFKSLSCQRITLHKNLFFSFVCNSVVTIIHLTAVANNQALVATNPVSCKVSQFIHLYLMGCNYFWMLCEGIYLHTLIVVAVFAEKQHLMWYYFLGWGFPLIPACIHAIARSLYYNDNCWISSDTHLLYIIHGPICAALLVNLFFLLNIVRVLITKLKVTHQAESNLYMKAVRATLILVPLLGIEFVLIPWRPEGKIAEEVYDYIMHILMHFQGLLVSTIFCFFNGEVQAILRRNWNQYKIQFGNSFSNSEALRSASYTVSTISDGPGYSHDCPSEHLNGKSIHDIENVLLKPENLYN
hAM1 receptor, sequence (O60895 43-175 partner): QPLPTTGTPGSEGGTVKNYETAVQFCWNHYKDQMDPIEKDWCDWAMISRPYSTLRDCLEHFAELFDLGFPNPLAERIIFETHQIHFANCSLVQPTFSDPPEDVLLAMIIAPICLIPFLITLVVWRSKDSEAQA
In short: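 A subcloned monoclonal line stably expressing hAM1 receptor is thawed and plated at 8000 cells/well. The assay buffer is DPBS with 0.05% casein and 0.5 mM IBMX, and receptor activation is followed by cAMP levels.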

[1] = Physical stability of peptide analogues (Thioflavin T fibrillation); type: physicochemical; conditions: maximum ThT signal normalized between hAMY maximum and buffer background; 40° C., shaking, four days; pH 7 per table title
In short: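 ThT fluorescence (450 nm excitation, 480 nm emission; 4 μM dye) was read every 10 min over four days at 40° C under 700 rpm shaking stress, after 1 h in pH 4 acetate or pH 7 phosphate (50 mM). Peak smoothed signal expressed as percent, scaled between buffer background and hAMY maximum.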

| SMILES | EC50 (hAM1 receptor) | Max ThT signal (%) [1] |
| --- | --- | --- |
| CC[C@H](C)[C@H](NC(=O)[C@H](CCC(N)=O)NC(=O)[C@H](Cc1c[nH]cn1)NC(=O)[C@H](C)NC(=O)[C@H](CC(C)C)NC(=O)[C@H](CCCNC(=N)N)NC(=O)[C@H](CCC(N)=O)NC(=O)[C@@H](NC(=O)[C@@H](NC(=O)[C@@H]1CSSC[C@H](NC(=O)CN)C(=O)N[C@@H](CCCNC(=N)N)C(=O)N[C@@H]([C@@H](C)O)C(=O)NCC(=O)N[C@@H]([C@@H](C)O)C(=O)N1)[C@@H](C)O)C(C)C)C(=O)N[C@@H](Cc1ccc(O)cc1)C(=O)N[C@@H](CCC(N)=O)C(=O)N[C@@H](Cc1ccccc1)C(=O)N[C@H](C(=O)N[C@@H](CC(N)=O)C(=O)N[C@@H](CCCCN)C(=O)N[C@@H](CC(=O)O)C(=O)N[C@@H](CCCCN)C(=O)N[C@@H](CC(=O)O)C(=O)N[C@@H](CC(N)=O)C(=O)N[C@H](C(=O)N[C@@H](C)C(=O)N1CCC[C@H]1C(=O)N[C@@H](CCCNC(=N)N)C(=O)N[C@@H](CO)C(=O)N[C@@H](CCCCN)C(=O)N[C@H](C(=O)N[C@@H](CO)C(=O)N1CCC[C@H]1C(=O)N[C@@H](CCC(N)=O)C(=O)N[C@@H](CCC(N)=O)C(=O)N1C[C@H](O)C[C@H]1C(N)=O)[C@@H](C)CC)C(C)C)[C@@H](C)O [compound 232] (H-GCRTGTCTVQRLAHQIYQFTNKDKDNVAPRSKISPQQ[Hyp]-NH2; disulfide 2-7; N-terminus assumed) | > 5 µM | 1.200% |
| CC(C)C[C@H](NC(=O)[C@H](CCCNC(=N)N)NC(=O)[C@H](CCC(N)=O)NC(=O)[C@@H](NC(=O)[C@@H](NC(=O)[C@@H]1CSSC[C@H](NC(=O)[C@@H](N)CCCCN)C(=O)N[C@@H](CC(N)=O)C(=O)N[C@@H]([C@@H](C)O)C(=O)N[C@@H](C)C(=O)N[C@@H]([C@@H](C)O)C(=O)N1)[C@@H](C)O)C(C)C)C(=O)N[C@@H](C)C(=O)N[C@@H](Cc1c[nH]cn1)C(=O)N[C@@H](CCC(N)=O)C(=O)N[C@@H](C)C(=O)N[C@@H](Cc1ccc(O)cc1)C(=O)N[C@@H](CCC(N)=O)C(=O)N[C@@H](Cc1ccccc1)C(=O)N[C@H](C(=O)N[C@@H](CC(=O)O)C(=O)N[C@@H](CCCCN)C(=O)N[C@@H](CC(=O)O)C(=O)N[C@@H](CCCCN)C(=O)N[C@@H](CC(=O)O)C(=O)N[C@@H](CC(N)=O)C(=O)N[C@H](C(=O)N[C@@H](C)C(=O)N1CCC[C@H]1C(=O)N1CCC[C@H]1C(=O)N[C@H](C(=O)N[C@@H](CC(N)=O)C(=O)N[C@H](C(=O)NCC(=O)N[C@@H](CO)C(=O)N[C@@H](CC(N)=O)C(=O)NCC(=O)N1C[C@H](O)C[C@H]1C(N)=O)C(C)C)[C@@H](C)O)C(C)C)[C@@H](C)O [compound 210] (H-KCNTATCTVQRLAHQAYQFTDKDKDNVAPPTNVGSNG[Hyp]-NH2; disulfide 2-7) | > 5 µM | 1.400% |
| CC[C@H](C)[C@H](NC(=O)[C@H](CCCCN)NC(=O)[C@H](CO)NC(=O)[C@H](CCCNC(=N)N)NC(=O)[C@@H]1CCCN1C(=O)[C@H](C)NC(=O)[C@@H](NC(=O)[C@H](CC(N)=O)NC(=O)[C@H](CC(=O)O)NC(=O)[C@H](CCCCN)NC(=O)[C@H](CC(=O)O)NC(=O)[C@H](CCCCN)NC(=O)[C@H](CC(=O)O)NC(=O)[C@@H](NC(=O)[C@H](Cc1ccccc1)NC(=O)[C@H](CCC(N)=O)NC(=O)[C@H](Cc1ccc(O)cc1)NC(=O)[C@H](CC(C)C)NC(=O)[C@H](CCC(N)=O)NC(=O)[C@H](Cc1c[nH]cn1)NC(=O)[C@H](C)NC(=O)[C@H](CC(C)C)NC(=O)[C@H](CCCNC(=N)N)NC(=O)[C@H](CCC(N)=O)NC(=O)[C@@H](NC(=O)[C@@H](NC(=O)[C@@H]1CSSC[C@H](NC(=O)CN)C(=O)N[C@@H](CCCNC(=N)N)C(=O)N[C@@H](Cc2ccccc2)C(=O)NCC(=O)N[C@@H]([C@@H](C)O)C(=O)N1)[C@@H](C)O)C(C)C)[C@@H](C)O)C(C)C)C(=O)N[C@@H](CO)C(=O)N1CCC[C@H]1C(=O)N[C@@H](CCC(N)=O)C(=O)N[C@H](C(=O)N1C[C@H](O)C[C@H]1C(N)=O)[C@@H](C)O [compound 217] (H-GCRFGTCTVQRLAHQLYQFTDKDKDNVAPRSKISPQT[Hyp]-NH2; disulfide 2-7; N-terminus assumed) | > 5 µM | 13.800% |

Second part, the compound after the results:

| EC50 (hAM1 receptor) | Max ThT signal (%) [1] | SMILES |
| --- | --- | --- |
| > 5 µM | 20.350% | CC[C@H](C)[C@H](NC(=O)[C@H](CC(N)=O)NC(=O)[C@H](CO)NC(=O)[C@H](CCCNC(=N)N)NC(=O)[C@@H]1CCCN1C(=O)[C@H](C)NC(=O)[C@@H](NC(=O)[C@H](CC(N)=O)NC(=O)[C@H](CC(=O)O)NC(=O)[C@H](CCCCN)NC(=O)[C@H](CC(=O)O)NC(=O)[C@H](CCCCN)NC(=O)[C@H](CC(=O)O)NC(=O)[C@@H](NC(=O)[C@H](Cc1ccccc1)NC(=O)[C@H](CCC(N)=O)NC(=O)[C@H](Cc1ccc(O)cc1)NC(=O)[C@@H](NC(=O)[C@H](CCC(N)=O)NC(=O)[C@H](Cc1c[nH]cn1)NC(=O)[C@H](C)NC(=O)[C@H](CC(C)C)NC(=O)[C@H](Cc1c[nH]c2ccccc12)NC(=O)[C@H](CCC(N)=O)NC(=O)[C@@H](NC(=O)[C@@H](NC(=O)[C@@H]1CSSC[C@H](NC(=O)CN)C(=O)N[C@@H](CCCNC(=N)N)C(=O)N[C@@H]([C@@H](C)O)C(=O)NCC(=O)N[C@@H]([C@@H](C)O)C(=O)N1)[C@@H](C)O)C(C)C)[C@@H](C)CC)[C@@H](C)O)C(C)C)C(=O)NCC(=O)N1CCC[C@H]1C(=O)N[C@@H](CCC(N)=O)C(=O)NCC(=O)N1C[C@H](O)C[C@H]1C(N)=O [compound 359] (H-GCRTGTCTVQWLAHQIYQFTDKDKDNVAPRSNIGPQG[Hyp]-NH2; disulfide 2-7; N-terminus assumed) |
| > 5 µM | 21.600% | CC[C@H](C)[C@H](NC(=O)[C@H](CCCCN)NC(=O)[C@@H](NC(=O)[C@H](CCCNC(=N)N)NC(=O)[C@@H]1CCCN1C(=O)[C@H](C)NC(=O)[C@@H](NC(=O)[C@H](CC(N)=O)NC(=O)[C@H](CC(=O)O)NC(=O)[C@H](CCCCN)NC(=O)[C@H](CC(=O)O)NC(=O)[C@H](CCCCN)NC(=O)[C@H](CC(=O)O)NC(=O)[C@@H](NC(=O)[C@H](Cc1ccccc1)NC(=O)[C@H](CCC(N)=O)NC(=O)[C@H](Cc1ccc(O)cc1)NC(=O)[C@@H](NC(=O)[C@H](CCC(N)=O)NC(=O)[C@H](Cc1c[nH]cn1)NC(=O)[C@H](C)NC(=O)[C@H](CC(C)C)NC(=O)[C@H](CCCNC(N)=O)NC(=O)[C@H](CCC(N)=O)NC(=O)[C@@H](NC(=O)[C@@H](NC(=O)[C@@H]1CSSC[C@H](NC(=O)CN)C(=O)N[C@@H](CCCNC(=N)N)C(=O)N[C@@H]([C@@H](C)O)C(=O)NCC(=O)N[C@@H]([C@@H](C)O)C(=O)N1)[C@@H](C)O)C(C)C)[C@@H](C)CC)[C@@H](C)O)C(C)C)[C@@H](C)O)C(=O)NCC(=O)N1CCC[C@H]1C(=O)N[C@@H](CC(N)=O)C(=O)NCC(=O)N1C[C@H](O)C[C@H]1C(N)=O [compound 277] (H-GCRTGTCTVQ[Cit]LAHQIYQFTDKDKDNVAPRTKIGPNG[Hyp]-NH2; disulfide 2-7; N-terminus assumed) |
| > 5 µM | 19.450% | CC[C@H](C)[C@@H]1NC(=O)[C@H](CCCNC(=N)N)NC(=O)[C@@H](NC(=O)CN)CSSC[C@@H](C(=O)N[C@H](C(=O)N[C@H](C(=O)N[C@@H](CCC(N)=O)C(=O)N[C@@H](CCCNC(N)=O)C(=O)N[C@@H](CC(C)C)C(=O)N[C@@H](C)C(=O)N[C@@H](Cc2c[nH]cn2)C(=O)N[C@@H](CCC(N)=O)C(=O)N[C@H](C(=O)N[C@@H](Cc2ccc(O)cc2)C(=O)N[C@@H](CCC(N)=O)C(=O)N[C@@H](Cc2ccccc2)C(=O)N[C@H](C(=O)N[C@@H](CC(=O)O)C(=O)N[C@@H](CCCCN)C(=O)N[C@@H](Cc2ccccc2)C(=O)N[C@@H](CCCCN)C(=O)N[C@@H](CC(=O)O)C(=O)N[C@@H](CC(N)=O)C(=O)N[C@H](C(=O)N[C@@H](C)C(=O)N2CCC[C@H]2C(=O)N[C@@H](CCCNC(=N)N)C(=O)N[C@@H](CO)C(=O)N[C@@H](CCCCN)C(=O)N[C@H](C(=O)N[C@@H](CO)C(=O)N2CCC[C@H]2C(=O)N[C@@H](CCC(N)=O)C(=O)N[C@H](C(=O)N2C[C@H](O)C[C@H]2C(N)=O)[C@@H](C)O)[C@@H](C)CC)C(C)C)[C@@H](C)O)[C@@H](C)CC)C(C)C)[C@@H](C)O)NC(=O)[C@H]([C@@H](C)O)NC(=O)CNC1=O [compound 295] (H-GCRIGTCTVQ[Cit]LAHQIYQFTDKFKDNVAPRSKISPQT[Hyp]-NH2; disulfide 2-7; N-terminus assumed) |
| > 5 µM | 21.700% | CC[C@H](C)[C@H](NC(=O)[C@H](CCC(N)=O)NC(=O)[C@H](CCC(=O)O)NC(=O)[C@H](C)NC(=O)[C@H](CC(C)C)NC(=O)[C@H](Cc1c[nH]c2ccccc12)NC(=O)[C@H](CCC(N)=O)NC(=O)[C@@H](NC(=O)[C@@H](NC(=O)[C@@H]1CSSC[C@H](NC(=O)[C@@H](N)CCCCN)C(=O)N[C@@H](CC(N)=O)C(=O)N[C@@H]([C@@H](C)O)C(=O)N[C@@H](C)C(=O)N[C@@H]([C@@H](C)O)C(=O)N1)[C@@H](C)O)C(C)C)C(=O)N[C@@H](Cc1ccc(O)cc1)C(=O)N[C@@H](CCC(N)=O)C(=O)N[C@@H](Cc1ccccc1)C(=O)N[C@H](C(=O)N[C@@H](CC(=O)O)C(=O)N[C@@H](CCCCN)C(=O)N[C@@H](CC(=O)O)C(=O)N[C@@H](CCCCN)C(=O)N[C@@H](CC(=O)O)C(=O)N[C@@H](CC(N)=O)C(=O)N[C@H](C(=O)N[C@@H](C)C(=O)N1CCC[C@H]1C(=O)N1CCC[C@H]1C(=O)N[C@@H](Cc1ccc(O)cc1)C(=O)N[C@@H](CC(N)=O)C(=O)N[C@@H](CCC(=O)O)C(=O)NCC(=O)N[C@@H](CO)C(=O)N[C@@H](CC(N)=O)C(=O)NCC(=O)N1C[C@H](O)C[C@H]1C(N)=O)C(C)C)[C@@H](C)O [compound 321] (H-KCNTATCTVQWLAEQIYQFTDKDKDNVAPPYNEGSNG[Hyp]-NH2; disulfide 2-7; N-terminus assumed) |
